Measurements as given in ChEMBL document CHEMBL2016443, “From ApoA1 upregulation to BET family bromodomain inhibition: discovery of I-BET151” (Bioorg Med Chem Lett, 2012).
The source made the active and inactive calls. No cut-off for these calls is given here.

Columns and labels:
Mus musculus [1] = test: Antiinflammatory activity in LPS-stimulated acute inflammation BALB/c mouse model assessed as inhibition of plasma TNF-alpha level at 10 mg/kg, po administered 2 hrs before LPS challenge; type: functional
Rattus norvegicus [2] = species: Rattus norvegicus; test: Half life in CD rat; type: ADME, organism-based; settings: in vivo
Mus musculus [3] = test: Antiinflammatory activity in LPS-stimulated acute inflammation BALB/c mouse model assessed as inhibition of plasma PAI-1 level at 10 mg/kg, po administered 2 hrs before LPS challenge; type: functional
THP-1 = test: Antiinflammatory activity in human THP1 cells; type: functional, cell-based
Cytochrome P450 2C9 = Cytochrome P450 2C9 (Homo sapiens, UniProt P11712); test: Inhibition of CYP2C9; type: ADME
[4] = Oral bioavailability in CD rat; type: ADME, organism-based; settings: in vivo
Salmonella typhimurium = test: Mutagenic activity in Salmonella typhimurium by Ames assay; type: toxicity, organism-based; settings: salmonella enterica subsp. enterica serovar typhimurium
Hepatocyte [5] = test: Bioactivation in human hepatocytes assessed as glutathione trapping; type: cell-based
Hepatocyte [6] = test: Bioactivation in rat hepatocytes assessed as compound epoxidation; type: cell-based
Rattus norvegicus [7] = species: Rattus norvegicus; test: Dose normalized AUC (0 to infinity ) in CD rat; type: ADME, organism-based; settings: in vivo
Mus musculus [8] = test: Antiinflammatory activity in LPS-stimulated acute inflammation BALB/c mouse model assessed as inhibition of plasma IL-6 level at 10 mg/kg, po administered 2 hrs before LPS challenge; type: functional
Mus musculus [9] = test: Antiinflammatory activity in LPS-stimulated acute inflammation BALB/c mouse model assessed as inhibition of plasma MCP-1 level at 10 mg/kg, po administered 2 hrs before LPS challenge; type: functional
HepG2 = test: Upregulation of ApoA1 expression in human HepG2 cells assessed as concentration required to increase 70% of luciferase activity after 18 hrs by luciferase reporter gene assay; type: functional
PBMC [10] = test: Inhibition of LPS-stimulated TNFalpha production in human PBMC; type: functional, cell-based
PBMC [11] = test: Inhibition of LPS-stimulated IL-6 production in human PBMC; type: functional, cell-based
Hepatocyte [12] = test: Bioactivation in human hepatocytes assessed as compound epoxidation; type: cell-based
[13] = Volume of distribution at steady state in CD rat; type: ADME, organism-based; settings: in vivo, read-out: Vdss
Hepatocyte [14] = test: Bioactivation in rat hepatocytes assessed as glutathione trapping; type: cell-based

Chain of Cytochrome P450 2C9 (P11712 whole entry): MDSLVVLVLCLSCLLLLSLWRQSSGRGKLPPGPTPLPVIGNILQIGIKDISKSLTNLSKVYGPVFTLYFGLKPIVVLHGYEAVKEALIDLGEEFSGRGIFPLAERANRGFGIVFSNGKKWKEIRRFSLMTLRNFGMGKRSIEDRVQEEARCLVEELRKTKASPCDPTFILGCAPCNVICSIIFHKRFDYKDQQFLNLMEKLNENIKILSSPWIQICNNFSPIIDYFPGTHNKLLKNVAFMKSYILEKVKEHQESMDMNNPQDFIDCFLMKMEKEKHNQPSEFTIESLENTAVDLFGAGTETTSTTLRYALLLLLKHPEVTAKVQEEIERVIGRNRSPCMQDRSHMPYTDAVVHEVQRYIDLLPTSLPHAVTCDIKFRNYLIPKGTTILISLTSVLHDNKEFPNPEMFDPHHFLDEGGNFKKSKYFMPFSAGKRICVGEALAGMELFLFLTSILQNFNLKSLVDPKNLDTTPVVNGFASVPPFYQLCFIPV

- t1/2 (Rattus norvegicus [2]): 1.7 h
- IC50 (Cytochrome P450 2C9): 9.9 µM
- bioavailability [4]: 66%
- Drug metabolism (Hepatocyte [5]): Not Active
- Drug metabolism (Hepatocyte [6]): Not Active
- AUC/dose (Rattus norvegicus [7]): 38 kg·min/L
- Drug metabolism (Hepatocyte [12]): Not Active
- Vd [13]: 2.1 L/kg
- Drug metabolism (Hepatocyte [14]): Not Active
Structure (SMILES): COc1cc2c(cc1-c1c(C)noc1C)ncc1[nH]c(=O)n([C@H](C)c3ccccn3)c12
- inhibition in vivo at 10 mg/kg (Mus musculus [1]): 65%
- inhibition in vivo at 10 mg/kg (Mus musculus [3]): 35%
- Activity (THP-1): Active
- Activity (Salmonella typhimurium): Non-toxic
- inhibition in vivo at 10 mg/kg (Mus musculus [8]): 75%
- inhibition in vivo at 10 mg/kg (Mus musculus [9]): 47%
- EC170 (HepG2): 0.09 µM
- inhibition (PBMC [10]): Dose-dependent effect
- inhibition (PBMC [11]): Dose-dependent effect
